According to patent publication US20260285850A1, “SUBSTITUTED OXAZOLIDINONES AND IMIDAZOLINONES AS HERBICIDES” (FMC CORPORATION, priority 2023, published 2026):

Assays:
Format in all cases: in vivo
kochia (Bassia scoparia) [1] = test: Test A postemergence application, visual injury rating 0-100; conditions: Postemergence
Excerpt: (§1) Seeds of plant species selected from barnyardgrass (Echinochloa crus-galli), blackgrass (Alopecurus myosuroides), corn (Zea mays), foxtail, giant (giant foxtail, Setaria faberi), green foxtail (Setaria viridis), goosegrass (Eleusine indica), kochia (Bassia scoparia), oat, wild (wild oat, Avena fatua), palmer (palmer amaranth, palmer pigweed, Amaranthus palmeri), ragweed (common ragweed, Ambrosia artemisiifolia), ryegrass, Italian (italian ryegrass, Lolium multiflorum), soybean (Glycine max) and wheat (Triticum aestivum) were planted into a blend of loam soil and sand and treated preemergence with a directed soil spray using test chemicals formulated in a non-phytotoxic solvent mixture which included a surfactant.
(§2) At the same time, plants selected from these crops and weed species and also galium (catchweed bedstraw, Galium aparine) and horseweed (Erigeron canadensis) were planted in pots containing the same blend of loam soil and sand and treated with postemergence applications of test chemicals formulated in the same manner. Plants ranged in height from 2 to 10 cm and were in the one- to two-leaf stage for the postemergence treatment. Treated plants and untreated controls were maintained in a greenhouse for 10 days, after which time all treated plants were compared to untreated controls and visually evaluated for injury. Plant response ratings, summarized in Table A, are based on a 0 to 100 scale where 0 is no effect and 100 is complete control. A dash (-) response means no test result.

[2] = system: blackgrass (Alopecurus myosuroides); test: as above; conditions: Postemergence
Excerpt: as §1, §2

[3] = system: horseweed (Erigeron canadensis); test: as above; conditions: Postemergence
Excerpt: as §1, §2

[4] = system: palmer (palmer amaranth, palmer pigweed, Amaranthus palmeri); test: as above; conditions: Postemergence
Excerpt: as §1, §2

[5] = system: oat, wild (wild oat, Avena fatua); test: as above; conditions: Postemergence
Excerpt: as §1, §2

[6] = system: barnyardgrass (Echinochloa crus-galli); test: as above; conditions: Postemergence
Excerpt: as §1, §2

[7] = system: ragweed (common ragweed, Ambrosia artemisiifolia); test: as above; conditions: Postemergence
Excerpt: as §1, §2

[8] = system: ryegrass, Italian (italian ryegrass, Lolium multiflorum); test: as above; conditions: Postemergence
Excerpt: as §1, §2

[9] = system: wheat (Triticum aestivum); test: as above; conditions: Postemergence
Excerpt: as §1, §2

corn (Zea mays) [10] = test: as above; conditions: Postemergence
Excerpt: as §1, §2

soybean (Glycine max) [11] = test: as above; conditions: Postemergence
Excerpt: as §1, §2

[12] = system: galium (catchweed bedstraw, Galium aparine); test: as above; conditions: Postemergence
Excerpt: as §1, §2

kochia (Bassia scoparia) [13] = test: Test A preemergence soil spray, visual injury rating 0-100; conditions: 10 days; for Kochia plant response rating: 31 g ai/ha, 0 to 100 scale; for Kochia plant response rating (0 to 100 scale): 0 = no effect, 100 = complete control
Excerpt: as §1, §2

[14] = system: blackgrass (Alopecurus myosuroides); test: as above; conditions: 10 days; for Blackgrass plant response rating: 31 g ai/ha, 0 to 100 scale
Excerpt: as §1, §2

[15] = system: palmer (palmer amaranth, palmer pigweed, Amaranthus palmeri); test: as above; conditions: 10 days; for Amaranth, Palmer (Pigweed, Palmer) plant response rating: 31 g ai/ha, 0 to 100 scale
Excerpt: as §1, §2

[16] = system: oat, wild (wild oat, Avena fatua); test: as above; conditions: 10 days; for Oat, Wild plant response rating: 31 g ai/ha, 0 to 100 scale
Excerpt: as §1, §2

[17] = system: barnyardgrass (Echinochloa crus-galli); test: as above; conditions: 10 days; for Barnyardgrass plant response rating: 31 g ai/ha, 0 to 100 scale; for Barnyardgrass plant response rating (0 to 100 scale): 0 = no effect, 100 = complete control
Excerpt: as §1, §2

[18] = system: ragweed (common ragweed, Ambrosia artemisiifolia); test: as above; conditions: 10 days; for Ragweed plant response rating: 31 g ai/ha, 0 to 100 scale
Excerpt: as §1, §2

[19] = system: ryegrass, Italian (italian ryegrass, Lolium multiflorum); test: as above; conditions: 10 days; for Ryegrass, Italian plant response rating: 31 g ai/ha, 0 to 100 scale; for Ryegrass, Italian plant response rating (0 to 100 scale): 0 = no effect, 100 = complete control
Excerpt: as §1, §2

[20] = system: wheat (Triticum aestivum); test: as above; conditions: 10 days; for Wheat plant response rating: 31 g ai/ha, 0 to 100 scale
Excerpt: as §1, §2

corn (Zea mays) [21] = test: as above; conditions: 10 days; for Corn plant response rating: 31 g ai/ha, 0 to 100 scale
Excerpt: as §1, §2

soybean (Glycine max) [22] = test: as above; conditions: 10 days; for Soybean plant response rating: 31 g ai/ha, 0 to 100 scale
Excerpt: as §1, §2

[23] = system: green foxtail (Setaria viridis); test: Test A postemergence application, visual injury rating 0-100; conditions: Postemergence, 1000 g ai/ha, 0 to 100 scale, 10 days
Excerpt: as §1, §2

[24] = system: green foxtail (Setaria viridis); test: Test A preemergence soil spray, visual injury rating 0-100; conditions: 1000 g ai/ha, 10 days, 0 = no effect, 100 = complete control
Excerpt: as §1, §2

[25] = 31 g ai/ha, greenhouse 10 days, 0 no effect, 100 complete control
[26] = 125 g ai/ha, 10 days, 0 is no effect, 100 is complete control
[27] = 125 g ai/ha, 0 = no effect, 100 = complete control
[28] = 1000 g ai/ha, 0 to 100 scale, 10 days

CC1(C(=O)NC2C=CC(C(=O)NS(=O)(=O)C3CC3)C2)CN(c2cc(Cl)cc(Cl)c2)C(=O)O1 (centres unmarked) [Compound 85]
10: Soybean plant response rating (0 to 100 scale) (soybean (Glycine max) [22]; [27])
60: Blackgrass plant response rating (0 to 100 scale) [2, 25] | Horseweed plant response rating (0 to 100 scale) [3, 25] | Horseweed plant response rating (0 to 100 scale) [3, 26] | Ragweed plant response rating (0 to 100 scale) [7, 26] | Ryegrass, Italian plant response rating (0 to 100 scale) [8, 25] | Soybean plant response rating (0 to 100 scale) (soybean (Glycine max) [11]; [26]) | Ryegrass, Italian plant response rating [19]
80: Blackgrass plant response rating (0 to 100 scale) [2, 26] | Oat, Wild plant response rating (0 to 100 scale) [5, 25] | Wheat plant response rating (0 to 100 scale) [9, 25] | Galium plant response rating (0 to 100 scale) [12, 26] | Amaranth, Palmer (Pigweed, Palmer) plant response rating [15] | Ryegrass, Italian plant response rating (0 to 100 scale) ([19]; 125 g ai/ha)
50: Kochia plant response rating (0 to 100 scale) (kochia (Bassia scoparia) [1]; [25]) | Galium plant response rating (0 to 100 scale) [12, 25] | Oat, Wild plant response rating (0 to 100 scale) [16, 27]
90: Amaranth, Palmer / Pigweed, Palmer plant response rating (0 to 100 scale) [4, 26] | Oat, Wild plant response rating (0 to 100 scale) [5, 26] | Barnyardgrass plant response rating (0 to 100 scale) [6, 25] | Barnyardgrass plant response rating (0 to 100 scale) [6, 26] | Wheat plant response rating (0 to 100 scale) [9, 26] | Corn plant response rating (0 to 100 scale) (corn (Zea mays) [10]; [26]) | Kochia plant response rating (0 to 100 scale) (kochia (Bassia scoparia) [13]; 125 g ai/ha) | Amaranth, Palmer plant response rating (0 to 100 scale) [15, 27] | Barnyardgrass plant response rating (0 to 100 scale) ([17]; 125 g ai/ha) | Wheat plant response rating (0 to 100 scale) [20, 27]
0: Blackgrass plant response rating [14] | Wheat plant response rating [20] | Corn plant response rating (corn (Zea mays) [21]) | Soybean plant response rating (soybean (Glycine max) [22])
30: Ragweed plant response rating (0 to 100 scale) [7, 25] | Ragweed plant response rating [18] | Corn plant response rating (0 to 100 scale) (corn (Zea mays) [21]; [27])
70: Kochia plant response rating (0 to 100 scale) (kochia (Bassia scoparia) [1]; [26]) | Ryegrass, Italian plant response rating (0 to 100 scale) [8, 26]
40: Amaranth, Palmer / Pigweed, Palmer plant response rating (0 to 100 scale) [4, 25] | Soybean plant response rating (0 to 100 scale) (soybean (Glycine max) [11]; [25])
20: Corn plant response rating (0 to 100 scale) (corn (Zea mays) [10]; [25]) | Kochia plant response rating (kochia (Bassia scoparia) [13]) | Blackgrass plant response rating (0 to 100 scale) [14, 27] | Oat, Wild plant response rating [16] | Barnyardgrass plant response rating [17] | Ragweed plant response rating (0 to 100 scale) [18, 27]

CC1(C(=O)NC2C=CC(C(=O)NS(=O)(=O)c3ccccc3)C2)CN(c2cc(Cl)cc(Cl)c2)C(=O)O1 (centres unmarked) [Compound 86]
90: Kochia plant response rating (0 to 100 scale) (kochia (Bassia scoparia) [1]; [26]) | Amaranth, Palmer / Pigweed, Palmer plant response rating (0 to 100 scale) [4, 25] | Amaranth, Palmer / Pigweed, Palmer plant response rating (0 to 100 scale) [4, 26] | Oat, Wild plant response rating (0 to 100 scale) [5, 26] | Barnyardgrass plant response rating (0 to 100 scale) [6, 25] | Barnyardgrass plant response rating (0 to 100 scale) [6, 26] | Corn plant response rating (0 to 100 scale) (corn (Zea mays) [10]; [25])
100: Corn plant response rating (0 to 100 scale) (corn (Zea mays) [10]; [26])
0: Blackgrass plant response rating [14] | Oat, Wild plant response rating [16] | Ryegrass, Italian plant response rating [19] | Wheat plant response rating [20] | Corn plant response rating (corn (Zea mays) [21]) | Soybean plant response rating (soybean (Glycine max) [22])
40: Horseweed plant response rating (0 to 100 scale) [3, 25] | Kochia plant response rating (kochia (Bassia scoparia) [13])
80: Kochia plant response rating (0 to 100 scale) (kochia (Bassia scoparia) [1]; [25]) | Ragweed plant response rating (0 to 100 scale) [7, 26] | Wheat plant response rating (0 to 100 scale) [9, 26] | Galium plant response rating (0 to 100 scale) [12, 26]
20: Soybean plant response rating (0 to 100 scale) (soybean (Glycine max) [11]; [25])
60: Oat, Wild plant response rating (0 to 100 scale) [5, 25] | Ragweed plant response rating (0 to 100 scale) [7, 25] | Ryegrass, Italian plant response rating (0 to 100 scale) [8, 25] | Wheat plant response rating (0 to 100 scale) [9, 25] | Soybean plant response rating (0 to 100 scale) (soybean (Glycine max) [11]; [26])
50: Horseweed plant response rating (0 to 100 scale) [3, 26]
30: Blackgrass plant response rating (0 to 100 scale) [2, 25] | Barnyardgrass plant response rating [17]
10: Ragweed plant response rating [18]
70: Blackgrass plant response rating (0 to 100 scale) [2, 26] | Ryegrass, Italian plant response rating (0 to 100 scale) [8, 26] | Galium plant response rating (0 to 100 scale) [12, 25] | Amaranth, Palmer (Pigweed, Palmer) plant response rating [15]

COC(=O)C1C=CC(NC(=O)C2(C)CN(c3cc(F)cc(F)c3)C(=O)N2)C1 (centres unmarked) [Compound 180]
90: Blackgrass plant response rating [2, 28] | Horseweed plant response rating [3, 28] | Foxtail, Green plant response rating [23] | Galium plant response rating [12, 28]
100: Barnyardgrass plant response rating [6, 28] | Kochia plant response rating (0 to 100 scale) (kochia (Bassia scoparia) [13]; 1000 g ai/ha) | Amaranth, Palmer / Pigweed, Palmer plant response rating (0 to 100 scale) ([15]; 1000 g ai/ha, 0 = no effect, 100 = complete control) | Foxtail, Green plant response rating (0 to 100 scale) [24] | Barnyardgrass plant response rating (0 to 100 scale) ([17]; 1000 g ai/ha) | Ryegrass, Italian plant response rating (0 to 100 scale) ([19]; 1000 g ai/ha)
80: Kochia plant response rating (kochia (Bassia scoparia) [1]; [28])
